For assay [1], the target named is T1, Transcription regulator protein BACH1 (Homo sapiens) (UniProt O14867).
T1 sequence (whole entry): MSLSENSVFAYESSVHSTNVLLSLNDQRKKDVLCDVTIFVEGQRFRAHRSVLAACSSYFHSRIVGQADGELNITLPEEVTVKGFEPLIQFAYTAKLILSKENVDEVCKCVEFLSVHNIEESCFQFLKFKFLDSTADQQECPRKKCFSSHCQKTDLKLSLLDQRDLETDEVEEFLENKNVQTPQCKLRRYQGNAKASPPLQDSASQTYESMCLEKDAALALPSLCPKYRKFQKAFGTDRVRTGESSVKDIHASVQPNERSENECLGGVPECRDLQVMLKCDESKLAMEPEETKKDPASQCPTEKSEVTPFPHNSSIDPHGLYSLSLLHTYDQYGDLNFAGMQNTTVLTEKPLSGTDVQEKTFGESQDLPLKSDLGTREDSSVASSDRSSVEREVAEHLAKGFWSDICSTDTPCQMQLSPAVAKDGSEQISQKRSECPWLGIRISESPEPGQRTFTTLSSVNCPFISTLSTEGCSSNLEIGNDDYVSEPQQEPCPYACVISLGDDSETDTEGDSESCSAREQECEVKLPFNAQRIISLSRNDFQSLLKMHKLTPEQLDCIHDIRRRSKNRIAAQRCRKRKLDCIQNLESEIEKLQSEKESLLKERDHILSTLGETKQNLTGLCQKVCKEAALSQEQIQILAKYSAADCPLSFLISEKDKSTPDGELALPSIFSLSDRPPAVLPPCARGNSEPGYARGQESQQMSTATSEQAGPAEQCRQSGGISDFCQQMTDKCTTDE
In words: Inhibition of Bach1 in normal human lung fibroblasts assessed as induction of HMOX protein expression at 0.156 uM in presence of 10 uM Nrf2 activator DMF incubated for 16 to 18 hrs by immunostaining relative to control.

Assay [2] addresses T1, Transcription regulator protein BACH1 (Homo sapiens). In words: Inhibition of Bach1 in normal human lung fibroblasts assessed as induction of HMOX protein expression by measuring HMOX positive cells level at 0.156 uM in presence of 1 uM Nrf2 activator DMF incubated for 16 to 18 hrs by immunostaining relative to control DMSO. Further details: scale not given: the % may be the effect or the level left.

For assay [3] the target is unchanged. In words: Inhibition of Bach1 in normal human lung fibroblasts assessed as induction of HMOX protein expression at 0.019 uM in presence of 0.03 uM Nrf2 activator DMF incubated for 16 to 18 hrs by immunostaining relative to control.
For assay [4] the target is unchanged. In words: Inhibition of Bach1 in normal human lung fibroblasts assessed as induction of HMOX protein expression at 0.019 uM in presence of 10 uM Nrf2 activator DMF incubated for 16 to 18 hrs by immunostaining relative to control.
The target is the same in assay [5]. In words: Inhibition of Bach1 in normal human lung fibroblasts assessed as induction of HMOX protein expression at 0.156 uM incubated for 16 to 18 hrs by immunostaining relative to control.
The target is the same in assay [6]. In words: Inhibition of Bach1 in normal human lung fibroblasts assessed as induction of HMOX protein expression at 0.078 uM in presence of 30 uM Nrf2 activator DMF incubated for 16 to 18 hrs by immunostaining relative to control.
Assay [7] has the same target. In words: Inhibition of Bach1 in normal human lung fibroblasts assessed as induction of HMOX protein expression at 0.019 uM in presence of 0.1 uM Nrf2 activator DMF incubated for 16 to 18 hrs by immunostaining relative to control.
Assay [8] shares this target. In words: Inhibition of Bach1 in normal human lung fibroblasts assessed as induction of HMOX protein expression at 0.078 uM in presence of 10 uM Nrf2 activator DMF incubated for 16 to 18 hrs by immunostaining relative to control.
Assay [9] shares this target. In words: Inhibition of Bach1 in normal human lung fibroblasts assessed as induction of HMOX protein expression by measuring HMOX positive cells level at 0.078 uM in presence of 0.3 uM Nrf2 activator DMF incubated for 16 to 18 hrs by immunostaining relative to control DMSO. Details: scale not given: the % may be the effect or the level left.
Assay [10] has the same target. In words: Inhibition of Bach1 in normal human lung fibroblasts assessed as induction of HMOX protein expression by measuring HMOX positive cells level at 0.019 uM incubated for 16 to 18 hrs by immunostaining relative to control DMSO. Details: scale not given: the % may be the effect or the level left.
The target is the same in assay [11]. In words: Inhibition of Bach1 in normal human lung fibroblasts assessed as induction of HMOX protein expression at 0.039 uM in presence of 3 uM Nrf2 activator DMF incubated for 16 to 18 hrs by immunostaining relative to control.
Assay [12] has the same target. In words: Inhibition of Bach1 in normal human lung fibroblasts assessed as induction of HMOX protein expression by measuring HMOX positive cells level at 0.039 uM incubated for 16 to 18 hrs by immunostaining relative to control DMSO. Details: scale not given: the % may be the effect or the level left.
Assay [13] shares this target. In words: Inhibition of Bach1 in normal human lung fibroblasts assessed as induction of HMOX protein expression by measuring HMOX positive cells level at 0.019 uM in presence of 0.1 uM Nrf2 activator DMF incubated for 16 to 18 hrs by immunostaining relative to control DMSO. Further details: scale not given: the % may be the effect or the level left.
Assay [14] shares this target. In words: Inhibition of Bach1 in normal human lung fibroblasts assessed as induction of HMOX protein expression by measuring HMOX positive cells level at 0.156 uM in presence of 0.03 uM Nrf2 activator DMF incubated for 16 to 18 hrs by immunostaining relative to control DMSO. Further details: scale not given: the % may be the effect or the level left.
Assay [15] shares this target. In words: Inhibition of Bach1 in normal human lung fibroblasts assessed as induction of HMOX protein expression by measuring HMOX positive cells level at 0.039 uM in presence of 3 uM Nrf2 activator DMF incubated for 16 to 18 hrs by immunostaining relative to control DMSO. Further details: scale not given: the % may be the effect or the level left.
Assay [16] has the same target. In words: Inhibition of Bach1 in normal human lung fibroblasts assessed as induction of HMOX protein expression at 0.156 uM in presence of 30 uM Nrf2 activator DMF incubated for 16 to 18 hrs by immunostaining relative to control.
Assay [17] shares this target. In words: Inhibition of Bach1 in normal human lung fibroblasts assessed as induction of HMOX protein expression by measuring HMOX positive cells level at 0.039 uM in presence of 0.3 uM Nrf2 activator DMF incubated for 16 to 18 hrs by immunostaining relative to control DMSO. Details: scale not given: the % may be the effect or the level left.
For assay [18] the target is unchanged. In words: Inhibition of Bach1 in normal human lung fibroblasts assessed as induction of HMOX protein expression at 0.156 uM in presence of 3 uM Nrf2 activator DMF incubated for 16 to 18 hrs by immunostaining relative to control.
For assay [19] the target is unchanged. In words: Inhibition of Bach1 in normal human lung fibroblasts assessed as induction of HMOX protein expression at 0.019 uM in presence of 3 uM Nrf2 activator DMF incubated for 16 to 18 hrs by immunostaining relative to control.
Assay [20] shares this target. In words: Inhibition of Bach1 in normal human lung fibroblasts assessed as induction of HMOX protein expression by measuring HMOX positive cells level at 0.039 uM in presence of 0.03 uM Nrf2 activator DMF incubated for 16 to 18 hrs by immunostaining relative to control DMSO. Details: scale not given: the % may be the effect or the level left.

Take `COCCNC(=O)c1cnc2c(c1)nc(Nc1nc3ccc(OC(F)(F)F)cc3s1)n2C`: the fold change (FC) in [1] was 5.58; in [3] it was 1.17; in assay [4], 4.94; in assay [5], 1.96; in [6], 4.52; in [7] it was 1.13. In addition, the fold change (FC) is 5.06 in [8]; 2.84 in [11]; 4.99 in [16]; 3.63 in assay [18]; 2.98 in assay [19]. The Activity in assay [2] is 57.7%; in [9], 10.3%; in assay [10] it was 2.31%; in [12], 5.3%; in [13], 2.55%; in [14], 8.51%. Further, the values for the Activity in assay [15], in assay [17] and in assay [20] were 75.8%, 13% and 1.53%, respectively.
In the case of `CN(C)C(=O)CNC(=O)c1ccc2c(c1)nc(Nc1nc3ccc(C(F)(F)F)cc3s1)n2C`, the fold change (FC) in assay [1] was determined as 6.55; in [3], 1.1; in [4] it was 5.75; in [5], 2.66; in [6] it was 6.18; in assay [7] it was 1.15. Moreover, the fold change (FC) in assay [8] was 6.46; in assay [11], 3.01; in [16], 5.49; in assay [18], 4.57; in assay [19], 2.86. Further, the Activity in assay [2] was 66.7%; in [9], 16.2%; in assay [10], 3.6%; in [12] it was 2.31%; in assay [13] it was 2.37%; in assay [14], 22.1%. Moreover, the Activity was 68% in assay [15], 12.8% in assay [17] and 5.74% in [20].
`CNC(=O)c1ccc2c(c1)nc(Nc1nc3ccc(OC(F)(F)F)cc3s1)n2C`: in assay [5], the fold change (FC) amounted to 3.46.
Take `Cn1c(Nc2nc3ccc(C(F)(F)F)cc3s2)nc2cc(C(=O)NCCOCCO)ccc21`: the fold change (FC) was 7.5 in assay [1]; 1.31 in [3]; 5.12 in [4]; 6.46 in assay [5]; 4.8 in assay [6]; 1.23 in assay [7]. For the same compound, the fold change (FC) in [8] was found to be 6.52; in assay [11], 4; in assay [16], 6.18; in assay [18], 7.69; in assay [19], 3.55. The Activity was 97.7% in assay [2]; 61.5% in assay [9]; 19.4% in assay [10]; 28% in assay [12]; 4.52% in assay [13]; 92.5% in assay [14]. In addition, the Activity in assay [15] came out at 78.7%; in assay [17], 18.7%; in assay [20], 11.9%.

The record behind these values is ChEMBL document CHEMBL4421728, “Bach1 Inhibitors in Combination with Nrf2 Activators and Pharmaceutical Compositions Thereof” (2017).
